ChEMBL document CHEMBL3885861, “Open TG-GATES”

Organism: Rattus norvegicus
Experiment: Open TG-GATES - Regimen: Daily Repeat
Type: toxicity, organism-based, Sprague-Dawley
Design: regimen Daily Repeat, gender Male, age 6 weeks
Conditions: in vivo, po, route gavage; for APTT / Bas / Eos / Fbg / Hb / Ht / Lym / MCHC / MCV / Mono / Neu / PT / Plat / RBC / Ret / WBC: tissue Blood; for KIDNEY_L / KIDNEY_R / KIDNEY_TOTAL: tissue Kidney; for LIVER: tissue Liver; for ALP / ALT / AST / CRE / DBIL / GLC / K / LDH / Na / PL / RALB / TBIL / TC / TG / TP / gamma-GTP / IP / Ca: tissue Plasma
[1] = 200 mg/kg, 72 h, dose level Middle, time 3 day
[2] = 200 mg/kg, […], dose level Middle, time 7 day
[3] = 200 mg/kg, […], dose level Middle, time 14 day
[4] = 200 mg/kg, […], dose level Middle, time 28 day
[5] = 600 mg/kg, 72 h, dose level High, time 3 day
[6] = 600 mg/kg, […], dose level High, time 7 day
[7] = 600 mg/kg, […], dose level High, time 14 day
[8] = 600 mg/kg, […], dose level High, time 28 day

SMILES: O=C1NC(=O)C(c2ccccc2)(c2ccccc2)N1 [PHENYTOIN]
- TERMINAL_BW [1]: 220.5 g
- APTT [1]: 21 s
- Bas [1]: 0%
- Eos [1]: 0.8%
- Fbg [1]: 304.4 mg/dL
- Hb [1]: 13 g/dL
- Ht [1]: 39.4%
- Lym [1]: 77.4%
- MCHC [1]: 33.1%
- MCV [1]: 63.8 fL
- Mono [1]: 2.4%
- Neu [1]: 18.4%
- PT [1]: 15.5 s
- Plat [1]: 117 x10_4/uL
- RBC [1]: 618.4 x10_4/ul
- Ret [1]: 7.3%
- WBC [1]: 98.2 x10_2/uL
- KIDNEY_L [1]: 0.9 g
- KIDNEY_R [1]: 0.9 g
- KIDNEY_TOTAL [1]: 1.9 g
- LIVER [1]: 10.5 g
- ALP [1]: 1568.8 IU/L
- ALT [1]: 45.8 IU/L
- AST [1]: 75.4 IU/L
- CRE [1]: 0.1 mg/dL
- DBIL [1]: 0.008 mg/dL
- GLC [1]: 185.8 mg/dL
- K [1]: 4 meq/L
- LDH [1]: 188 IU/L
- Na [1]: 143.4 meq/L
- PL [1]: 147 mg/dL
- RALB [1]: 2.9 g/dL
- TBIL [1]: 0.012 mg/dL
- TC [1]: 84.4 mg/dL
- TG [1]: 85.2 mg/dL
- TP [1]: 5.8 g/dL
- gamma-GTP [1]: 1 IU/L
- TERMINAL_BW [2]: 247.9 g
- TERMINAL_BW [3]: 301 g
- TERMINAL_BW [4]: 393.6 g
- APTT [2]: 22.3 s
- Bas [2]: 0%
- Eos [2]: 0.6%
- Fbg [2]: 324 mg/dL
- Hb [2]: 13.1 g/dL
- Ht [2]: 38.8%
- Lym [2]: 79.8%
- MCHC [2]: 33.7%
- MCV [2]: 62.5 fL
- Mono [2]: 2.4%
- Neu [2]: 16.2%
- PT [2]: 15.6 s
- Plat [2]: 123.7 x10_4/uL
- RBC [2]: 621.2 x10_4/ul
- Ret [2]: 6%
- WBC [2]: 109.9 x10_2/uL
- APTT [3]: 22.3 s
- Bas [3]: 0%
- Eos [3]: 0.8%
- Fbg [3]: 285.6 mg/dL
- Hb [3]: 14.1 g/dL
- Ht [3]: 41.4%
- Lym [3]: 82.6%
- MCHC [3]: 34.1%
- MCV [3]: 62 fL
- Mono [3]: 2.2%
- Neu [3]: 13.6%
- PT [3]: 16.3 s
- Plat [3]: 121.5 x10_4/uL
- RBC [3]: 669.8 x10_4/ul
- Ret [3]: 4.7%
- WBC [3]: 112.2 x10_2/uL
- APTT [4]: 23.4 s
- Bas [4]: 0%
- Eos [4]: 1.2%
- Fbg [4]: 332.6 mg/dL
- Hb [4]: 15.4 g/dL
- Ht [4]: 43.4%
- Lym [4]: 84%
- MCHC [4]: 35.5%
- MCV [4]: 58.1 fL
- Mono [4]: 1.4%
- Neu [4]: 12.6%
- PT [4]: 15.8 s
- Plat [4]: 122.2 x10_4/uL
- RBC [4]: 747 x10_4/ul
- Ret [4]: 2.9%
- WBC [4]: 117 x10_2/uL
- KIDNEY_L [2]: 1.1 g
- KIDNEY_R [2]: 1 g
- KIDNEY_TOTAL [2]: 2.1 g
- KIDNEY_L [3]: 1.2 g
- KIDNEY_R [3]: 1.2 g
- KIDNEY_TOTAL [3]: 2.4 g
- KIDNEY_L [4]: 1.4 g
- KIDNEY_R [4]: 1.5 g
- KIDNEY_TOTAL [4]: 2.9 g
- LIVER [2]: 12.4 g
- LIVER [3]: 13.9 g
- LIVER [4]: 17.5 g
- ALP [2]: 1383 IU/L
- ALT [2]: 39.4 IU/L
- AST [2]: 61 IU/L
- CRE [2]: 0.2 mg/dL
- DBIL [2]: 0.004 mg/dL
- GLC [2]: 187.6 mg/dL
- IP [2]: 6.9 mg/dL
- K [2]: 4.1 meq/L
- LDH [2]: 159.2 IU/L
- Na [2]: 141.8 meq/L
- PL [2]: 146.4 mg/dL
- RALB [2]: 3.1 g/dL
- TBIL [2]: 0.024 mg/dL
- TC [2]: 74.8 mg/dL
- TG [2]: 120.4 mg/dL
- TP [2]: 5.8 g/dL
- gamma-GTP [2]: 1 IU/L
- ALP [3]: 1572.8 IU/L
- ALT [3]: 41.8 IU/L
- AST [3]: 65.8 IU/L
- CRE [3]: 0.2 mg/dL
- DBIL [3]: 0 mg/dL
- GLC [3]: 174.2 mg/dL
- IP [3]: 7 mg/dL
- K [3]: 4.2 meq/L
- LDH [3]: 130 IU/L
- Na [3]: 142.8 meq/L
- PL [3]: 147 mg/dL
- RALB [3]: 3.1 g/dL
- TBIL [3]: 0.002 mg/dL
- TC [3]: 70.6 mg/dL
- TG [3]: 163.4 mg/dL
- TP [3]: 5.6 g/dL
- gamma-GTP [3]: 1.6 IU/L
- ALP [4]: 1131.8 IU/L
- ALT [4]: 44 IU/L
- AST [4]: 74.6 IU/L
- CRE [4]: 0.2 mg/dL
- DBIL [4]: 0.002 mg/dL
- GLC [4]: 186.4 mg/dL
- IP [4]: 6.3 mg/dL
- K [4]: 3.9 meq/L
- LDH [4]: 146.2 IU/L
- Na [4]: 143.6 meq/L
- PL [4]: 160 mg/dL
- RALB [4]: 3.2 g/dL
- TBIL [4]: 0.028 mg/dL
- TC [4]: 81 mg/dL
- TG [4]: 138.4 mg/dL
- TP [4]: 6.3 g/dL
- gamma-GTP [4]: 1.6 IU/L
- TERMINAL_BW [5]: 211.2 g
- APTT [5]: 21.7 s
- Bas [5]: 0%
- Eos [5]: 1%
- Fbg [5]: 282.8 mg/dL
- Hb [5]: 13.4 g/dL
- Ht [5]: 39.8%
- Lym [5]: 77.6%
- MCHC [5]: 33.8%
- MCV [5]: 64.7 fL
- Mono [5]: 2.4%
- PT [5]: 15.7 s
- Plat [5]: 124.6 x10_4/uL
- RBC [5]: 617 x10_4/ul
- Ret [5]: 6.3%
- WBC [5]: 85 x10_2/uL
- KIDNEY_L [5]: 0.9 g
- KIDNEY_R [5]: 0.9 g
- KIDNEY_TOTAL [5]: 1.9 g
- LIVER [5]: 10.5 g
- ALP [5]: 1803.2 IU/L
- ALT [5]: 45 IU/L
- AST [5]: 73.6 IU/L
- CRE [5]: 0.1 mg/dL
- DBIL [5]: 0.002 mg/dL
- GLC [5]: 158 mg/dL
- IP [5]: 7.3 mg/dL
- K [5]: 4.4 meq/L
- LDH [5]: 193.6 IU/L
- Na [5]: 143.2 meq/L
- PL [5]: 127.4 mg/dL
- RALB [5]: 3 g/dL
- TBIL [5]: 0.01 mg/dL
- TC [5]: 67 mg/dL
- TG [5]: 74.6 mg/dL
- TP [5]: 5.7 g/dL
- gamma-GTP [5]: 1.2 IU/L
- TERMINAL_BW [6]: 243.1 g
- TERMINAL_BW [7]: 290.1 g
- TERMINAL_BW [8]: 332.2 g
- APTT [6]: 23.9 s
- Bas [6]: 0%
- Eos [6]: 0.6%
- Fbg [6]: 311.5 mg/dL
- Hb [6]: 13.8 g/dL
- Ht [6]: 39.7%
- Lym [6]: 80.4%
- MCHC [6]: 34.7%
- MCV [6]: 62.1 fL
- Mono [6]: 2.2%
- Neu [6]: 15.6%
- PT [6]: 15.6 s
- Plat [6]: 125.6 x10_4/uL
- RBC [6]: 638.6 x10_4/ul
- Ret [6]: 4.6%
- WBC [6]: 101.9 x10_2/uL
- APTT [7]: 25.5 s
- Bas [7]: 0%
- Eos [7]: 0.8%
- Fbg [7]: 281.6 mg/dL
- Hb [7]: 14.4 g/dL
- Ht [7]: 42.7%
- Lym [7]: 81.6%
- MCHC [7]: 33.6%
- MCV [7]: 60.3 fL
- Mono [7]: 1.8%
- Neu [7]: 14.6%
- PT [7]: 16.3 s
- Plat [7]: 121.7 x10_4/uL
- RBC [7]: 709.6 x10_4/ul
- Ret [7]: 4.4%
- WBC [7]: 118.8 x10_2/uL
- APTT [8]: 25.5 s
- Bas [8]: 0%
- Eos [8]: 1%
- Fbg [8]: 299 mg/dL
- Hb [8]: 15.7 g/dL
- Ht [8]: 44.4%
- Lym [8]: 85.2%
- MCHC [8]: 35.4%
- MCV [8]: 56.8 fL
- Mono [8]: 1.4%
- Neu [8]: 11.6%
- PT [8]: 15.9 s
- Plat [8]: 105 x10_4/uL
- RBC [8]: 781.8 x10_4/ul
- Ret [8]: 2.5%
- WBC [8]: 89.2 x10_2/uL
- KIDNEY_L [6]: 1.1 g
- KIDNEY_R [6]: 1.1 g
- KIDNEY_TOTAL [6]: 2.2 g
- KIDNEY_L [7]: 1.2 g
- KIDNEY_R [7]: 1.2 g
- KIDNEY_TOTAL [7]: 2.3 g
- KIDNEY_L [8]: 1.3 g
- KIDNEY_R [8]: 1.3 g
- KIDNEY_TOTAL [8]: 2.6 g
- LIVER [6]: 13.6 g
- LIVER [7]: 13.6 g
- LIVER [8]: 13.8 g
- ALP [6]: 1547.2 IU/L
- ALT [6]: 39.4 IU/L
- AST [6]: 59.6 IU/L
- CRE [6]: 0.2 mg/dL
- DBIL [6]: 0 mg/dL
- GLC [6]: 167 mg/dL
- IP [6]: 6.8 mg/dL
- K [6]: 4.2 meq/L
- LDH [6]: 173 IU/L
- Na [6]: 142.2 meq/L
- PL [6]: 145.2 mg/dL
- RALB [6]: 3 g/dL
- TBIL [6]: 0.024 mg/dL
- TC [6]: 77.8 mg/dL
- TG [6]: 78.6 mg/dL
- TP [6]: 5.8 g/dL
- gamma-GTP [6]: 1 IU/L
- ALP [7]: 1535.6 IU/L
- ALT [7]: 43.6 IU/L
- AST [7]: 65.6 IU/L
- CRE [7]: 0.2 mg/dL
- Ca [7]: 10.2 mg/dL
- DBIL [7]: 0 mg/dL
- GLC [7]: 186 mg/dL
- IP [7]: 6.4 mg/dL
- K [7]: 4.1 meq/L
- LDH [7]: 157.2 IU/L
- Na [7]: 143 meq/L
- PL [7]: 137.8 mg/dL
- RALB [7]: 3 g/dL
- TBIL [7]: 0.004 mg/dL
- TC [7]: 69.4 mg/dL
- TG [7]: 99.4 mg/dL
- TP [7]: 5.7 g/dL
- gamma-GTP [7]: 1.6 IU/L
- ALP [8]: 1175.6 IU/L
- ALT [8]: 40.4 IU/L
- AST [8]: 62 IU/L
- CRE [8]: 0.2 mg/dL
- Ca [8]: 10 mg/dL
- DBIL [8]: 0 mg/dL
- GLC [8]: 183.2 mg/dL
- IP [8]: 5.4 mg/dL
- K [8]: 4 meq/L
- LDH [8]: 135.8 IU/L
- Na [8]: 143.4 meq/L
- PL [8]: 135.4 mg/dL
- RALB [8]: 3.1 g/dL
- TBIL [8]: 0.024 mg/dL
- TC [8]: 67.2 mg/dL
- TG [8]: 95.4 mg/dL
- TP [8]: 6.1 g/dL
- gamma-GTP [8]: 1.4 IU/L
